Reference: US12522597B2, “Methods and compositions for modulating splicing” (Skyhawk Therapeutics, Inc., priority 2019, dated 2026)

Legend:
MDR1 = experiment: MDCK-MDR1 permeability assay (BBB penetration potential); format: in vitro ADME; details: dog; for efflux ratio at 120 min, 5 μM: MDCK-MDR1, pH 7.4, MDCK-MDR1: Efflux; for Papp A→B at 120 min, 5 μM: MDCK-MDR1, pH 7.4, MDCK-MDR1: Papp A-B; for Papp B→A at 120 min, 5 μM: MDCK-MDR1, pH 7.4, MDCK-MDR1: Papp B-A
Procedure: (§1) Each determination is performed in duplicate. […] Analytical conditions are outlined below.

[1] = test system: MDR1-MDCK cell monolayers; experiment: as above; format: in vitro ADME; details: dog, MDCK-MDR1, 120 min, 5 μM, pH 7.4
Procedure: as §1

mHTT protein = mHTT protein assay (2B7-MW1, Mesoscale Discovery); format: cell-based, human; details: GM04724 (CAG 70/20) Huntington's disease patient lymphoblast cells, 48 hours, 2B7-MW1 MSD; read-out: HTT Potency - Protein EC50 mHTT (average)
Procedure: Compounds are tested on GM04724 (CAG 70/20) Huntington's disease patient lymphoblast cells at doses ranging from 10 μM to 0.6 nM. 4,500 cells/well are seeded in 384 well plates. One plate replica is carried out for parallel viability testing by CellTiter Glo (CTG). Compounds are incubated for 48 hours, mHTT protein levels are assessed by the 2B7-MW1 assay via Mesoscale Discovery (MSD) as previously reported (Macdonald et al., 2014). The antibody pair is comprised of previously characterized monoclonals (2B7 and MW1) interrogating two regions for HTT conformation and biological properties: the N17 domain and the polyQ domain (Baldo et al., 2012; Ko et., 2001). 2B7-MW1 is dependent on subject/animal specific levels of HTT at the time of treatment. 2B7-MW1 is dependent on polyQ expansion (e.g., the higher the expansion the higher the signal) and on mHTT size (e.g., a similar polyQ will give higher signal with smaller HTT size). The viability readout is carried out by CTG according to the manufacturer's instructions.

SMILES | efflux ratio at 120 min, 5 μM (MDR1) | Papp A→B at 120 min, 5 μM (MDR1) [×10⁻⁶ cm/s] | Papp B→A at 120 min, 5 μM (MDR1) [×10⁻⁶ cm/s] | MDCK-MDR1: % Recov A-B [1] [%] | MDCK-MDR1: % Recov B-A [1] [%] | EC50 (mHTT protein) [nM]
Cc1ncn(-c2ccc(-c3ccc(O[C@H]4C[C@@H]5CCC[C@@H](N5)[C@H]4F)nn3)c(O)c2)n1 (single isomer, unassigned) [70-ENT2] | 5 | 7.47 | 40.1 | 94 | 105 | 101 to 500
Cc1cc(-c2ccc(-c3ccc(O[C@@H]4C[C@H]5CCC[C@H](N5)[C@@H]4F)nn3)c(O)c2)cs1 (single isomer, unassigned) [101-ENT1] | 1 | 0.86 | 0.76 | 25 | 70 | 101 to 500
Cc1nnc(-c2ccc(-c3ccc(O[C@H]4C[C@@H]5CCC[C@@H](N5)[C@H]4F)nn3)c(O)c2)s1 (single isomer, unassigned) [95-ENT2] | 9 | 3.59 | 33.1 | 78 | 87 | 101 to 500
C[C@]12CCC[C@](C)(N1)[C@H](F)[C@H](Oc1ccc(-c3ccc(C#N)cc3O)nn1)C2 (single isomer, unassigned) [145-ENT1] | 4 | 9.39 | 42 | 82 | 87 | 501 to 10000
Cc1ccc(-c2ccc(-c3ccc(O[C@@H]4C[C@H]5CCC[C@H](N5)[C@@H]4F)nn3)c(O)c2)o1 (single isomer, unassigned) [99-ENT1] | 1 | 2.07 | 2.37 | 9 | 47 | 101 to 500
Oc1cc(-c2nnco2)c(F)cc1-c1ccc(O[C@@H]2C[C@H]3CC[C@H](N3)[C@@H]2F)nn1 (single isomer, unassigned) [142-ENT2] | 6 | 9.4 | 54.5 | 101 | 121 | 51 to 100
Oc1cc(-c2cc[nH]n2)ccc1-c1ccc(O[C@@H]2C[C@H]3CCC[C@H](N3)[C@@H]2F)nn1 (single isomer, unassigned) [66-ENT1] | 11 | 0.93 | 10.1 | 79 | 80 | 51 to 100
Cn1ccc(=O)c2cc(-c3ccc(O[C@H]4C[C@]5(C)CCC[C@@](C)(N5)[C@H]4F)nn3)c(O)cc21 (single isomer, unassigned) [131-ENT1] | 70 | 0.71 | 49.5 | 95 | 99 | 501 to 10000
Cc1ccc(-c2ccc(-c3ccc(O[C@H]4C[C@@H]5CCC[C@@H](N5)[C@H]4F)nn3)c(O)c2)cn1 (single isomer, unassigned) [67-ENT2] | 6 | 3.34 | 20.7 | 59 | 76 | 101 to 500
Cn1cc(-c2ccc(-c3ccc(O[C@H]4C[C@H]5CCC[C@H](N5)[C@H]4F)nn3)c(O)c2)cn1 (single isomer, unassigned) [122-ENT1] | 5 | 4.73 | 23.3 | 50 | 66 | 501 to 10000
Cn1cnc(-c2ccc(-c3ccc(O[C@H]4C[C@@H]5CCC[C@@H](N5)[C@H]4F)nn3)c(O)c2)cc1=O (single isomer, unassigned) [138-ENT2] | 32 | 1.88 | 60.7 | 92 | 91 | 101 to 500
Cn1cc(-c2ccc(-c3ccc(O[C@@H]4C[C@H]5COC[C@H](N5)[C@@H]4F)nn3)c(O)c2)cn1 (single isomer, unassigned) [124-ENT1] | 3 | 17.5 | 51.5 | 82 | 88 | 501 to 10000
Oc1cc(-c2ccn3cnnc3c2)ccc1-c1ccc(O[C@@H]2C[C@H]3CCC[C@H](N3)[C@@H]2F)nn1 (single isomer, unassigned) [86-ENT1] | 46 | 0.54 | 24.7 | 89 | 93 | 101 to 500
C[C@]12CC[C@](C)(N1)[C@H](F)[C@H](Oc1ccc(-c3ccc(C#N)cc3O)nn1)C2 (single isomer, unassigned) [152-ENT1] | 5 | 11.6 | 59.4 | 88 | 98 | 501 to 10000
Cc1cncc(-c2ccc(-c3ccc(O[C@@H]4C[C@H]5CCC[C@H](N5)[C@@H]4F)nn3)c(O)c2)c1 (single isomer, unassigned) [89-ENT1] | 6 | 6.05 | 33.8 | 68 | 76 | 501 to 10000
Oc1cc2nccnc2cc1-c1ccc(O[C@@H]2C[C@H]3CCC[C@H](N3)[C@@H]2F)nn1 (single isomer, unassigned) [104-ENT1] | 6 | 7.17 | 45.7 | 95 | 92 | 501 to 10000
Cn1cc(-c2cc(O)c(-c3ccc(O[C@@H]4CC5CC[C@H](N5)[C@@H]4F)nn3)cn2)cn1 (single isomer, unassigned) [63-ENT1] | 37 | 0.29 | 10.9 | 103 | 110 | 501 to 10000
